Measurements published in ChEMBL document CHEMBL1138408, “Molecular dynamics simulation of the P2Y14 receptor. Ligand docking and identification of a putative binding site of the distal hexose moiety” (Bioorg Med Chem Lett, 2007).

Molecular target: T1, P2Y purinoceptor 14 (Homo sapiens, UniProt Q15391)
T1 sequence (Q15391 whole entry): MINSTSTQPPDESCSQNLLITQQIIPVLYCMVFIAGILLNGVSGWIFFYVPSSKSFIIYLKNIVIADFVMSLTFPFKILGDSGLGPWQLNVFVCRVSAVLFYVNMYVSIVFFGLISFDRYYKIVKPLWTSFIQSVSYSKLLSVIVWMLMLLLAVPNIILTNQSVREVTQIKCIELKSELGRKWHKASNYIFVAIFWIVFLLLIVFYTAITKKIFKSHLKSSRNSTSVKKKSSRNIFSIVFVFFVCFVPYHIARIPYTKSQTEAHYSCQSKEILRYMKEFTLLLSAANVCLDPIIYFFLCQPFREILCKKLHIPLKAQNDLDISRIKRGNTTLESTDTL
Test: Agonist activity at human P2Y14 receptor expressed in COS7 cells assessed as stimulation of PLC
Type: functional, cell-based, COS-7

Structure (SMILES): CC(=O)N[C@@H]1[C@H](OP(=O)(O)OP(=O)(O)OC[C@H]2O[C@@H](n3ccc(=O)[nH]c3=O)[C@H](O)[C@@H]2O)O[C@@H](CO)[C@H](O)[C@H]1O
- EC50 (cos-7): 4380 nM

Structure (SMILES): O=C(O)[C@@H]1O[C@@H](OP(=O)(O)OP(=O)(O)OC[C@H]2O[C@@H](n3ccc(=O)[nH]c3=O)[C@H](O)[C@@H]2O)[C@@H](O)[C@H](O)[C@H]1O
- EC50: 370 nM
